# Reference: ChEMBL document CHEMBL1147376, “Isolation and structure elucidation of 34-sulfatobastadin 13, an inhibitor of the endothelin A receptor, from a marine sponge of the genus Ianthella” (J Nat Prod, 1993)
# Calls of active or inactive are those of the source. The calls are words filed in the database; no cut-off is given here.
# Legend:
# Bacillus subtilis [1] = assay: Antibacterial activity against Bacillus subtilis ATCC 6633 at 50 ug/mL after 18 to 24 hrs by twofold dilution test; type: functional, organism-based
# [2] = target: T1, Endothelin receptor type B (Rattus norvegicus) (UniProt P21451); assay: Displacement of [125]ET3 from ETB receptor in Sprague-Dawley rat cerebellum at 70 uM
# T1 sequence (whole entry): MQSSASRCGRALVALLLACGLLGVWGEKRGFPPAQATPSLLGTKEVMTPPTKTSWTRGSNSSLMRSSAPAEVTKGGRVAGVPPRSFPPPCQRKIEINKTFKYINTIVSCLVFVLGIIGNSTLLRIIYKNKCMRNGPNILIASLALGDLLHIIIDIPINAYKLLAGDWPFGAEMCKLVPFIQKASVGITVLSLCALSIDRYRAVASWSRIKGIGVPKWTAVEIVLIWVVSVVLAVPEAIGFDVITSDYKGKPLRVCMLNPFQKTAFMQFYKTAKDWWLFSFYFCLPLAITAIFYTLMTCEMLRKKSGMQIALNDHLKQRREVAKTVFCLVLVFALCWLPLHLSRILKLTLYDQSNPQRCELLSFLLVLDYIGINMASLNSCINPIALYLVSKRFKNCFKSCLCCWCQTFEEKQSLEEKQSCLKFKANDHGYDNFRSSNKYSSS
# Endothelin-1 receptor = target: T2, Endothelin-1 receptor (Sus scrofa, UniProt Q29010); assay: Displacement of [125]ET1 from ETA receptor in pig thoracic aorta
# T2 sequence (Q29010 whole entry): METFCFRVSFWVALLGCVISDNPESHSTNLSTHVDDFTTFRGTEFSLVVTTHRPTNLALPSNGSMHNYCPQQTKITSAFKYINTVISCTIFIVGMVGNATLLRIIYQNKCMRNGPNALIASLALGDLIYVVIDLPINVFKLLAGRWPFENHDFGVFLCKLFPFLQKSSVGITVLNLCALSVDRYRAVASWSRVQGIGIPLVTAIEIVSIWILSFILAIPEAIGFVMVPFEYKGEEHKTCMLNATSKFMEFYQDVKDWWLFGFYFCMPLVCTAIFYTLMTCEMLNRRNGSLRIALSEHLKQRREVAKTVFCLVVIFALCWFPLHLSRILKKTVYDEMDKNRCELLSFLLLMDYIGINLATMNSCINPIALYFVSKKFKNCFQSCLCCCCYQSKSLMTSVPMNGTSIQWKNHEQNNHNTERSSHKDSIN
# [3] = target: T3, Endothelin-1 receptor (Sus scrofa) (UniProt Q29010); assay: Displacement of [125]ET1 from ETA receptor in pig thoracic aorta at 70 uM; type: tissue-based
# T3 sequence (whole entry): T2 sequence (Q29010 whole entry)
# Bacillus subtilis [4] = assay: Antibacterial activity against Bacillus subtilis ATCC 6633 after 18 to 24 hrs by twofold dilution test; type: functional
inhibition [2],IC50 (Endothelin-1 receptor),inhibition [3],MIC (Bacillus subtilis [4]),SMILES,Activity (Bacillus subtilis [1])
27%,39 µM,–,–,O=C1NCCc2ccc(c(Br)c2)Oc2cc(ccc2O)CCNC(=O)/C(=N/O)Cc2cc(Br)c(OS(=O)(=O)O)c(c2)Oc2c(Br)cc(cc2Br)C/C1=N\O,inactive
30%,–,32%,6 µg/mL,O=C1NCCc2ccc(c(Br)c2)Oc2cc(ccc2O)CCNC(=O)/C(=N/O)Cc2cc(Br)c(O)c(c2)Oc2c(Br)cc(cc2Br)C/C1=N\O [BASTADIN 13],–
